Reference: patent publication US5137811A, “Method for diagnosing periodontal diseases with a substrate specific for aminopeptidase activity of periodontopathic bacteria” (Sunstar Kabushiki Kaisha, priority 1986, dated 1992)
Where a SMILES comes first, the peptide text is derived from it. The star is where a group is joined. βNA = c1ccc2cc(N*)ccc2c1; Bz = O=C(c1ccccc1)*

What was measured:
[1] = test system: Actinobacillus actinomycetemcomitans; assay: Hydrolytic activity of cell suspension on aminopeptidase substrates (Experiment 2); assay type: cell-based; conditions: four strains, Table 2
In short: (§1)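 A660 1.0 cell suspension + 0.2 mM β-naphthylamine-derived aminopeptidase substrate, 0.1M Tris-HCl pH 7.0, 37° C., 60 min. Garnet GBC (0.5 mg/ml, acetate pH 4.2, 10% Tween 20), 15 min, A525. Activity graded from mean β-naphthylamine released per strain.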

Actinomyces israelli [2] = assay: as above; assay type: cell-based; conditions: two strains, Table 2
In short: as §1

B. corporis = assay: as above; assay type: cell-based; conditions: Table 2
In short: as §1

B. denticola = assay: as above; assay type: cell-based; conditions: Table 2
In short: as §1

B. gingivalis [3] = assay: as above; assay type: cell-based; conditions: five strains, Table 2
In short: as §1

B. intermedius = assay: as above; assay type: cell-based; conditions: three strains, Table 2
In short: as §1

B. melaninogenicus = assay: as above; assay type: cell-based; conditions: two strains, Table 2
In short: as §1

Fusobacterium nucleatum [4] = assay: as above; assay type: cell-based; conditions: three strains, Table 2
In short: as §1

Treponema denticola [5] = assay: as above; assay type: cell-based; conditions: four strains, Table 2
In short: as §1

[6] = test system: Actinobacillus actinomycetemcomitans; assay: Hydrolytic activity of cell suspension, substrates alone or in combination (Experiment 3); assay type: cell-based; conditions: four strains, Table 3
Method: (§2) The strains of Treponema were anaerobically cultivated using TYGVS media at 37° C. for 7 days, while other bacterial strains were cultivated using brain heart infusion broth at 37° C. for 48 to 72 hours. Each culture was diluted to obtain a bacterial cell suspension, the absorption at 660 nm of which was 1.0.
(§3) Substrate compounds for aminopeptidase enzyme having various color developing groups derived from β-naphthylamine were dissolved in 0.1M Tris-HCl buffer (pH 7.0) at the concentration of 0.2 mM to obtain substrate solutions.
(§4) To the substrate solution (1.5 ml) was added the above cell suspension (0.3 ml) and reacted at 37° C. for 60 minutes. After completion of the reaction, a coloring reagent [prepared by dissolving diazonium salt of Garnet GBC in 1M acetate buffer (containing 10% Tween 20, pH: 4.2) at the concentration of 0.5 mg/ml] was added and, after 15 minutes, the absorption at 525 nm was determined with a spectrophotometer.
(§5) On the basis of the average amount of released β-naphthylamine in each strain, the hydrolytic activity was expressed as follows: […]
(§6) According to the same manner as described in Experiment 1, periodontopathic bacteria specific aminopeptidase activity was tested by using four strains of Treponema denticola, five strains of B. gingivalis, four strains of Actinobacillus actinomycetemcomitans, two strains of Actinomyces israelli and three strains of Fusobacterium nucleatum. Abbreviations in Table 3 are the same as those in Tables 1 and 2. Hydrolytic activity "+++" means "40≤release amount<80 nmol/ml" and "++++" means "release amount≥80 nmol/ml".

Actinomyces israelli [7] = assay: as above; assay type: cell-based; conditions: two strains, Table 3
Method: as §2, §3, §4, §5, §6

B. gingivalis [8] = assay: as above; assay type: cell-based; conditions: five strains, Table 3
Method: as §2, §3, §4, §5, §6

Fusobacterium nucleatum [9] = assay: as above; assay type: cell-based; conditions: three strains, Table 3
Method: as §2, §3, §4, §5, §6

Treponema denticola [10] = assay: as above; assay type: cell-based; conditions: four strains, Table 3
Method: as §2, §3, §4, §5, §6

[11] = test system: periodontopathic bacteria specific aminopeptidase activity; assay: Hydrolytic activity of gingival crevicular fluid specimens, OD525 (Experiment 6); assay type: biochemical
Method: as §3, §4
Specimens of gingival crevicular fluid were collected with paper points from five subjects who were considered to be healthy from their clinical state, six subjects with gingivitis and six subjects with periodontitis. Each specimen was dispersed in Ringer's solution (1.5 ml), and the relative amount of spirochete to total bacteria: [formula] was determined with a phase contrast microscope. Further, the Ringer's solution (0.3 ml) was tested for hydrolytic activity using the substrate solution prepared in the same manner as described in Experiment 1. As substrates, there were used compounds of the formula [1], i.e., N-benzoylvalyl-glycyl-arginine-β-naphthylamide (BzVGR) and N-carbobenzoxy-valyl-glycyl-arginine-β-naphthylamide (CxVGR) were used.
According to the same manner as described in Experiment 4, hydrolytic activity was tested by using the compounds of the formulas and [2], i.e., glycyl-proline-βnaphthylamide (GP), N-benzoyl-arginyl-glycyl-phenylalanylproline-β-naphthylamide (BzRGFP), N-carbobenzoxy-valylglycyl-arginine-β-naphthylamide (CxVGR) and N-benzoylglycyl-arginine-β-naphthylamide (BzGR) alone or in combination. Hydrolytic activity was determined by measuring absorption at 525 nm (OD525) and expressed as follows.

[12] = test system: periodontopathic bacteria specific aminopeptidase activity; assay: Hydrolytic activity of saliva supernatant, substrates alone or in combination (Experiment 9); assay type: biochemical; conditions: 37° C. for 4 hours, Table 9
Method: A saliva mixture was collected from a group consisting of ten healthy subjects and centrifuged to obtain a supernatant. Likewise, centrifuged supernatants were obtained from a group of ten subjects with adult periodontitis and a group of four localized juvenile periodontitis. The supernatant was used as a specimen and its hydrolytic activity was determined according to the same manner as described in Experiment 4 except that the reaction was carried out at 37° C. for 4 hours. As the substrates, there were used N-carbobenzoxy-valyl-glycyl-arginine-p-nitrophenol (CxVGR-pNP), N-carbobenzoxy-valyl-glycylarginine-4-methoxy-2-naphthylamide (CxVGR-4NA) and N-carbobenzoxy-valyl-glycyl-arginine-β-naphthylamide (CxVGR-βNA). Color was developed by using lN sodium hydroxide for CxVGR-pNP and Fast Blue BB for CxVGR-4NA and CxVGR-βNA.
According to the same manner as described in Experiment 7, hydrolytic activity was tested by using N-carbobenzoxy-valyl-glycyl-arginine-β-naphthylamide (CxVGR-βNA), N-benzoyl-arginyl-glycyl-phenylalanyl-proline-β-naphthylamide (BzRGFP-βNA), N-carbobenzoxy-valyl-glycylarginine-p-nitrophenol (CxVGR-pNP) and N-benzoyl-arginylglycyl-phenylalanyl-proline-p-nitrophenol (BzRGFP-pNP) alone or in combination as the substrates.

[13] = Gingivitis subject 1 (spirochete 7.3 %)
[14] = Gingivitis subject 2 (spirochete 16.7 %)
[15] = Gingivitis subject 3 (spirochete 20.5 %)
[16] = Gingivitis subject 4 (spirochete 6.8 %)
[17] = Gingivitis subject 5 (spirochete 7.3 %)
[18] = Gingivitis subject 6 (spirochete 14.4 %)
[19] = Healthy subject 1 (spirochete 0.1 %)
[20] = Healthy subject 3 (spirochete 1.1 %)
[21] = Healthy subject 4 (spirochete 0.6 %)
[22] = Healthy subject 5 (spirochete 1.3 %)
[23] = Periodontitis subject 1 (spirochete 45.2 %)
[24] = Periodontitis subject 2 (spirochete 30.3 %)
[25] = Periodontitis subject 3 (spirochete 34.6 %)
[26] = Periodontitis subject 4 (spirochete 21.2 %)
[27] = Periodontitis subject 5 (spirochete 40.3 %)
[28] = Periodontitis subject 6 (spirochete 35.1 %)

Structure (SMILES)	hydrolytic activity (average amount of released β-naphthylamine) [1]	hydrolytic activity (average amount of released β-naphthylamine) (Actinomyces israelli [2])	hydrolytic activity (average amount of released β-naphthylamine) (B. corporis)	hydrolytic activity (average amount of released β-naphthylamine) (B. denticola)	hydrolytic activity (average amount of released β-naphthylamine) (B. gingivalis [3])	hydrolytic activity (average amount of released β-naphthylamine) (B. intermedius)	hydrolytic activity (average amount of released β-naphthylamine) (B. melaninogenicus)	hydrolytic activity (average amount of released β-naphthylamine) (Fusobacterium nucleatum [4])	hydrolytic activity (average amount of released β-naphthylamine) (Treponema denticola [5])	hydrolytic activity (release amount) [6]	hydrolytic activity (release amount) (Actinomyces israelli [7])	hydrolytic activity (release amount) (B. gingivalis [8])	hydrolytic activity (release amount) (Fusobacterium nucleatum [9])	hydrolytic activity (release amount) (Treponema denticola [10])	hydrolytic activity, absorption at 525 nm (OD525) [11, 13]	hydrolytic activity, absorption at 525 nm (OD525) [11, 14]	hydrolytic activity, absorption at 525 nm (OD525) [11, 15]	hydrolytic activity, absorption at 525 nm (OD525) [11, 16]	hydrolytic activity, absorption at 525 nm (OD525) [11, 17]	hydrolytic activity, absorption at 525 nm (OD525) [11, 18]	other results
NCC(=O)N1CCC[C@H]1C(=O)Nc1ccc2ccccc2c1 [GP, glycyl-proline-β-naphthylamide] (H-Gly-Pro-βNA)	- (release amount<5 nmol/ml)	- (release amount<5 nmol/ml)	++ (20 ≤release amount<40 nmol/ml)	- (release amount<5 nmol/ml)	+++ (release amount≥40 nmol/ml)	+ (10 ≤release amount<20 nmol/ml)	++ (20 ≤release amount<40 nmol/ml)	- (release amount<5 nmol/ml)	++ (20 ≤release amount<40 nmol/ml)	- (release amount<5 nmol/ml)	- (release amount<5 nmol/ml)	+++ (40≤release amount<80 nmol/ml)	- (release amount<5 nmol/ml)	++ (20 ≤release amount<40 nmol/ml)	+ (0.1≤OD525 <0.2)	+ (0.1≤OD525 <0.2)	++ (0.2≤OD525 <0.4)	- (OD525 <0.1)	- (OD525 <0.1)	+ (0.1≤OD525 <0.2)	hydrolytic activity, absorption at 525 nm (OD525) [11, 19]: - (OD525 <0.1); hydrolytic activity, absorption at 525 nm (OD525) [11, 20]: - (OD525 <0.1); hydrolytic activity, absorption at 525 nm (OD525) [11, 21]: - (OD525 <0.1); hydrolytic activity, absorption at 525 nm (OD525) [11, 22]: - (OD525 <0.1); hydrolytic activity, absorption at 525 nm (OD525) [11, 23]: +++ (0.4≤OD525 <0.8); hydrolytic activity, absorption at 525 nm (OD525) [11, 24]: +++ (0.4≤OD525 <0.8); hydrolytic activity, absorption at 525 nm (OD525) [11, 25]: +++ (0.4≤OD525 <0.8); hydrolytic activity, absorption at 525 nm (OD525) [11, 26]: ++ (0.2≤OD525 <0.4); hydrolytic activity, absorption at 525 nm (OD525) [11, 27]: +++ (0.4≤OD525 <0.8); hydrolytic activity, absorption at 525 nm (OD525) [11, 28]: +++ (0.4≤OD525 <0.8)
N=C(N)NCCC[C@H](NC(=O)c1ccccc1)C(=O)NCC(=O)N[C@@H](Cc1ccccc1)C(=O)N1CCC[C@H]1C(=O)Nc1ccc2ccccc2c1 [BzRGFP, N-benzoyl-arginyl-glycyl-phenylalanyl-proline-β-naphthylamide] (Bz-RGFP-βNA)	- (release amount<5 nmol/ml)	- (release amount<5 nmol/ml)	++ (20 ≤release amount<40 nmol/ml)	+++ (release amount≥40 nmol/ml)	++ (20 ≤release amount<40 nmol/ml)	+++ (release amount≥40 nmol/ml)	+++ (release amount≥40 nmol/ml)	- (release amount<5 nmol/ml)	++ (20 ≤release amount<40 nmol/ml)	- (release amount<5 nmol/ml)	- (release amount<5 nmol/ml)	++ (20 ≤release amount<40 nmol/ml)	- (release amount<5 nmol/ml)	++ (20 ≤release amount<40 nmol/ml)	+ (0.1≤OD525 <0.2)	+ (0.1≤OD525 <0.2)	++ (0.2≤OD525 <0.4)	- (OD525 <0.1)	- (OD525 <0.1)	+ (0.1≤OD525 <0.2)	hydrolytic activity, absorption at 525 nm (OD525) [11, 19]: - (OD525 <0.1); hydrolytic activity, absorption at 525 nm (OD525) ([11]; Healthy subject 2 (spirochete 2.5 %)): + (0.1≤OD525 <0.2); hydrolytic activity, absorption at 525 nm (OD525) [11, 20]: - (OD525 <0.1); hydrolytic activity, absorption at 525 nm (OD525) [11, 21]: - (OD525 <0.1); hydrolytic activity, absorption at 525 nm (OD525) [11, 22]: - (OD525 <0.1); hydrolytic activity, absorption at 525 nm (OD525) [11, 23]: +++ (0.4≤OD525 <0.8); hydrolytic activity, absorption at 525 nm (OD525) [11, 24]: +++ (0.4≤OD525 <0.8); hydrolytic activity, absorption at 525 nm (OD525) [11, 25]: +++ (0.4≤OD525 <0.8); hydrolytic activity, absorption at 525 nm (OD525) [11, 26]: +++ (0.4≤OD525 <0.8); hydrolytic activity, absorption at 525 nm (OD525) [11, 27]: +++ (0.4≤OD525 <0.8); hydrolytic activity, absorption at 525 nm (OD525) [11, 28]: +++ (0.4≤OD525 <0.8); hydrolytic activity ([12]; Adult Periodontitis subjects): 27.8 ± 7.4 nmol/mL; hydrolytic activity ([12]; Healthy subjects): 13.2 ± 5.4 nmol/mL; hydrolytic activity ([12]; Localized juvenile periodontitis subjects): 22.6 ± 5.3 nmol/mL
